Source: article PMC5322338 (Scientific Reports, 2017)
One block for each compound: values may come before it.

Tests used:
[1] = Fluorescence quantum yield; conditions: quenched substrates versus free fluorophores
Description: We determined the absorption spectrum of the DNP group and the emission spectrum of the ACC fluorophore in four different assay buffers. […] To determine whether this spectral overlap is sufficient for ACC fluorophore quenching, we synthesized ACC-GDEVD-OH, a caspase substrate cleavage product, and compared its fluorescence with that of the full-length substrate ACC-GDEVD*GVK(DNP)D at various concentrations (Fig. 3).

[2] = tested on: Human neutrophil elastase (HNE); test: neutrophil elastase in 0.1 M HEPES and 0.5 M NaCl at pH 7.5; conditions: 37 °C, up to 30 min
caspase-8 = caspase-8 in caspase buffer supplemented with 1 M sodium citrate; conditions: human, 37 °C, up to 30 min
caspase-3 [3] = test: caspase-3 in 20 mM Pipes, 0.1 M NaCl, 1 mM EDTA, 10 mM DTT, 10% (w/v) sucrose, pH 7.2 to 7.4; conditions: human, 37 °C, up to 30 min
caspase-7 [4] = test: caspase-7 in 20 mM Pipes, 0.1 M NaCl, 1 mM EDTA, 10 mM DTT, 10% (w/v) sucrose, pH 7.2 to 7.4; conditions: human, 37 °C, up to 30 min
caspase-6 = caspase-6 in caspase buffer, IQF library screening; conditions: human, 37 °C, up to 30 min
caspase-3 [5] = test: caspase-3 in caspase buffer, IQF library screening and kinetics; conditions: human, 37 °C, up to 30 min
caspase-7 [6] = test: caspase-7 in caspase buffer, IQF library screening and kinetics; conditions: human, 37 °C, up to 30 min
Trypsin = test: trypsin in 0.05 M Tris, 0.15 M NaCl, 0.01% Triton X100, pH 7.6; conditions: 37 °C, up to 30 min
MMP2 = MMP2 in 0.1 M Tris-HCl, 0.1 M NaCl, 10 mM CaCl2, pH 7.5; conditions: 37 °C, up to 30 min
MMP9 = MMP9 in 0.1 M Tris-HCl, 0.1 M NaCl, 10 mM CaCl2, pH 7.5; conditions: 37 °C, up to 30 min
legumain = legumain in 40 mM citric acid, 1 mM EDTA, 120 mM Na2HPO4, 10 mM DTT, pH 5.8; conditions: human, 37 °C, up to 30 min

- fluorescence quantum yield (ϕF) [1]: 0.861
Compound: NC(=O)Cc1cc(=O)oc2cc(N)ccc12 [ACC, 7-amino-4-carbamoylmethylcoumarin]

- fluorescence quantum yield (ϕF) [1]: 0.718
Compound: COc1ccc2c(CC(=O)O)cc(=O)oc2c1 [MCA, 7-methoxy-coumarin-4-yl acetic acid]

- cleaved bond [2]: V-S
Compound: ACC-GAEPV*SLK(dnp)L-NH2

- cleaved bond (caspase-8): D-G
- cleaved bond (caspase-3 [3]): D-G
- cleaved bond (caspase-7 [4]): D-G
Compound: ACC-GDEVD*GVK(dnp)D-NH2

- cleaved bond (caspase-6): E-Ala
- cleaved bond (caspase-3 [5]): E-A
- cleaved bond (caspase-7 [6]): E-A
Compound: ACC-GDEVE/XKK(dnp)G-NH2 [DEVE/A]

- cleaved bond (caspase-6): E-Gly
- cleaved bond (caspase-3 [5]): E-G
- cleaved bond (caspase-7 [6]): E-G
Compound: ACC-GDEVE/XKK(dnp)G-NH2 [DEVE/G]

- cleaved bond (Trypsin): Lysine-I
Compound: ACC-GGLS(P1)*IVK(DNP)G-NH2 [ACC-GGLS(P1)*IVK(DNP)G-NH2, P1 = Lysine]

- cleaved bond (Trypsin): Ornithine-I
Compound: ACC-GGLS(P1)*IVK(DNP)G-NH2 [ACC-GGLS(P1)*IVK(DNP)G-NH2, P1 = Ornithine]

- cleaved bond (MMP2): G-L
- cleaved bond (MMP9): G-L
Compound: ACC-GPLG*LK(dnp)AR-NH2

- cleaved bond (legumain): N-K
Compound: ACC-GPTN*KVK(dnp)R-NH2

- cleaved bond [2]: V-S
Compound: MCA-GAEPV*SLK(dnp)L-NH2

- cleaved bond (caspase-8): D-G
- cleaved bond (caspase-3 [3]): D-G
- cleaved bond (caspase-7 [4]): D-G
Compound: MCA-GDEVD*GVK(dnp)D-NH2

- cleaved bond (MMP2): G-L
- cleaved bond (MMP9): G-L
Compound: MCA-GPLG*LK(dnp)AR-NH2

- cleaved bond (legumain): N-K
Compound: MCA-GPTN*KVK(dnp)R-NH2
